Test results: BindingDB's records for doi:10.1016/j.bmc.2013.02.056 (Ludwig-Maximilians-University Munich, 2013)

Columns and labels:
[1] = molecular target: T1, Sodium- and chloride-dependent GABA transporter 3 (Mus musculus, UniProt P31650); assay: Inhibition of mouse GAT3 expressed in HEK cells assessed as inhibition of [3H]-GABA uptake after 25 mins by liquid scintillation counting analysis
T1 sequence (P31650 whole entry): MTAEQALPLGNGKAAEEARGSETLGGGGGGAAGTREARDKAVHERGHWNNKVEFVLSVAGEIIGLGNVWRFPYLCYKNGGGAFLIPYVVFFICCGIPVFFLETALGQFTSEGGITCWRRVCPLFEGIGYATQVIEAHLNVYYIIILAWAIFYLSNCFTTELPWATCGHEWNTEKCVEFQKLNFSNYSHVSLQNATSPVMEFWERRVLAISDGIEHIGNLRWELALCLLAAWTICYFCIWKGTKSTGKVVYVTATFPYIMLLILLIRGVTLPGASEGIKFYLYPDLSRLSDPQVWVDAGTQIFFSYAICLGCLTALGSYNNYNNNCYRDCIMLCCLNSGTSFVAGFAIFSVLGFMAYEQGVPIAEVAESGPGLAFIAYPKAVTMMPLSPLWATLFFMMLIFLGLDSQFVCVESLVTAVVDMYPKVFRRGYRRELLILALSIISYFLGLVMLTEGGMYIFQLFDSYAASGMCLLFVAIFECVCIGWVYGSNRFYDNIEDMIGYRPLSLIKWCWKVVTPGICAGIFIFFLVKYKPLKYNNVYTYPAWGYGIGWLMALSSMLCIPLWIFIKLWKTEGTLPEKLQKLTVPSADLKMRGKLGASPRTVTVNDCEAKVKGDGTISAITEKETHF

[2] = molecular target: T2, Sodium- and chloride-dependent GABA transporter 2 (Mus musculus, UniProt P31649); assay: Inhibition of mouse GAT2 expressed in HEK cells assessed as inhibition of [3H]-GABA uptake after 25 mins by liquid scintillation counting analysis
T2 sequence (P31649 whole entry): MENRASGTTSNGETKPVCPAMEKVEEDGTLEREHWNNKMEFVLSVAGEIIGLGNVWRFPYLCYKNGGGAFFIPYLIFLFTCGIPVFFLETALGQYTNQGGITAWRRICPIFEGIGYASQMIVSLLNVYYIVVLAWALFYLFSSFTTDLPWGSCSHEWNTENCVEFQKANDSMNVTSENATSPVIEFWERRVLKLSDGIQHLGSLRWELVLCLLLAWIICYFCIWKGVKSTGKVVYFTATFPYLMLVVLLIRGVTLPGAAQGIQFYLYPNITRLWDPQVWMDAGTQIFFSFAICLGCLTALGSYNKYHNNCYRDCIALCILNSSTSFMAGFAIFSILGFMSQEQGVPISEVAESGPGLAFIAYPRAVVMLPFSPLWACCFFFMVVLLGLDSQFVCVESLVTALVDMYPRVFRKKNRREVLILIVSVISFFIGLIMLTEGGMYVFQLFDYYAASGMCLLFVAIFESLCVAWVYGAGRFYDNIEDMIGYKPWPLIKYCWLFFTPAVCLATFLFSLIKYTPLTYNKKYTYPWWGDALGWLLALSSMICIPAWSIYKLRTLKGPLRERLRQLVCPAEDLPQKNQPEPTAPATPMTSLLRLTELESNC

Row | SMILES | IC50 [1] [µM] | IC50 [2] [µM]
1 | O=C(c1cccc(F)c1)c1ccc(F)cc1/C=C/OCCN1CCCC(C(=O)O)C1 (centres undefined) | 339 | 60.3
2 | O=C(O)C1CCCN(CCO/C=C\c2cc(F)ccc2Cc2ccc(F)cc2)C1 (centres undefined) | 50.1 | 91.2
3 | O=C(c1ccccc1F)c1cc(F)ccc1/C=C\OCCN1CCCC(C(=O)O)C1 (centres undefined) | – | 66.1
4 | O=C(c1ccccc1F)c1cc(F)ccc1/C=C/OCCN1CCCC(C(=O)O)C1 (centres undefined) | 372 | 141
5 | O=C(O)C1CCCN(CCO/C=C/c2ccccc2Cc2ccccc2)C1 (centres undefined) | 37.2 | –
6 | O=C(O)[C@@H]1CCCN(CCC=C(c2ccccc2)c2ccccc2)C1 [(R)-1-(4,4-Diphenyl-but-3-enyl)-piperidine-3-carboxylic acid] | 195 | 372

Further compounds by falling IC50 [1], results first:

Row | IC50 [1] [µM] | IC50 [2] [µM] | SMILES
7 | 34.7 | – | O=C(O)C1CCCN(CCO/C=C\c2ccc(F)cc2Cc2ccc(F)cc2)C1 (centres undefined)
8 | 28.2 | – | O=C(O)C1CCCN(CCO/C=C\c2cc(F)ccc2Cc2ccccc2F)C1 (centres undefined)
9 | 20 | – | O=C(O)C1CCCN(CCO/C=C\c2cc(F)ccc2Cc2cccc(F)c2)C1 (centres undefined)
10 | 19.5 | – | O=C(O)C1CCCN(CCO/C=C\c2ccc(F)cc2Cc2ccccc2F)C1 (centres undefined)
